The values below come from US20200392107A1, “CYCLIC AMINE DERIVATIVE AND MEDICAL USE THEREOF” (Toray Industries, Inc., priority 2018, published 2020).

Assay [1] concerns oxazolone-induced mouse atopic dermatitis model. In words: Oxazolone-induced mouse atopic dermatitis model. It counts as in vivo. The settings on record: 10 mg/kg orally once daily for 15 days from sensitization day; BALB/c mice; vs vehicle, P<0.05. As to the method: Using increase in the ear thickness as an index of exacerbation of symptoms, the effect of the cyclic amine derivative (I) or a pharmacologically acceptable salt thereof in an oxazolone-induced mouse atopic dermatitis model was evaluated. The oxazolone-induced mouse atopic dermatitis model was prepared by a partially modified method by Nakajima et al. (Journal of Investigative Dermatology, 2014, Vol. 134, p. 2122-2130).
BALB/c mice (female, 7 weeks old) (Charles River Laboratories Japan, Inc.) were used at 8 weeks old after preliminary breeding. To the back of the mice, 25 μL of a 3 w/v % oxazolone solution dissolved in ethanol was applied to sensitize the mice. Every other day from 5 days to 13 days after the sensitization, 10 μL each of a 0.6 w/v % oxazolone solution dissolved in ethanol was applied to both sides of the right auricle of the sensitized mice to induce inflammation.
A test compound at a dose of 10 mg/kg was administered to the mice once daily for 15 days from the sensitization day to 14 days after sensitization. As the test compound, the compound of Example 1, the compound of Example 4, and the compound of Example 9 were used. The compound of Example 1, the compound of Example 4, and the compound of Example 9 were suspended in a 0.5 w/v % methylcellulose solution and orally administered. The group in which the compound of Example 1 was administered to mice was defined as the Example-1 compound administration group, the group in which the compound of Example 4 was administered was defined as the Example-4 compound administration group, and the group in which the compound of Example 9 was administered was defined as the Example-9 compound administration group. In the vehicle administration group, a vehicle of each test compound (0.5 w/v % methylcellulose solution) was similarly administered.
The right ear thickness before application of the oxazolone solution (before sensitization) on the sensitization day and the right ear thickness on the next day of final induction were measured with a digital micrometer (Mitutoyo Corporation). […]

The test system of assay [2] is DNFB-induced mouse allergic dermatitis model. In words: DNFB-induced mouse allergic dermatitis model. It counts as in vivo. The settings on record: 10 mg/kg orally one hour before induction; BALB/c mice; vs vehicle, P<0.05. How it is done:
Using increase in the ear swelling rate as an index of exacerbation of symptoms, the effect of the cyclic amine derivative (I) or a pharmacologically acceptable salt thereof in a DNFB-induced mouse allergic dermatitis model was evaluated. The DNFB-induced mouse allergic dermatitis model was prepared by a partially modified method by Curzytek et al. (Pharmacological Reports, 2013, Vol. 65, p. 1237-1246).
BALB/c mice (female, 6 weeks old) (Charles River Laboratories Japan, Inc.) were used at 8 weeks old after preliminary breeding. To the back of the mice, 25 μL of a 0.5 v/v % DNFB solution dissolved in acetone:olive oil (4:1) was applied. The next day, the same operation was repeated to sensitize the mice. Four days after the sensitization, 10 μL each of a 0.2 v/v % DNFB solution dissolved in acetone:olive oil (4:1) was applied to both sides of the right auricle of the sensitized mice to induce inflammation.
One hour before induction, a test compound at a dose of 10 mg/kg was administered to the mice. As the test compound, the compound of Example 1, the compound of Example 4, and the compound of Example 9 were used. The compound of Example 1, the compound of Example 4, and the compound of Example 9 were respectively suspended in a 0.5 w/v % methylcellulose solution and orally administered. The group in which the compound of Example 1 was administered to mice was defined as the Example-1 compound administration group, the group in which the compound of Example 4 was administered was defined as the Example-4 compound administration group, and the group in which the compound of Example 9 was administered was defined as the Example-9 compound administration group. […]
The right ear thickness before application of the DNFB solution (before induction) on the induction day and the right ear thickness at the 24th hour after induction were measured with a digital micrometer (Mitutoyo Corporation). The swelling rate of the auricle was calculated by Formula (3) and used as an index of the drug efficacy evaluation: […]

Regarding `CC(=O)N1CCCC[C@@H]1C(=O)Nc1cc(Cl)c2c(c1)CCN2C[C@H]1CC[C@H](C(F)(F)F)CC1` [Example 9, (R)-1-acetyl-N-(7-chloro-1-((trans-4-(trifluoromethyl)cyclo-hexyl)methyl)indolin-5-yl)piperidine-2-carboxamide], in assay [1], the “increase in the ear thickness (change in the ear thickness, next day of final induction)” value is “statistically significantly suppressed”. Also, the “increase in the ear swelling rate (24th hour after induction)” value (“increase in the ear swelling rate” for short) in assay [2] is recorded as “statistically significantly suppressed”.
On to `CC(=O)N1CCCC[C@@H]1C(=O)Nc1cc(Cl)c2c(c1)CCCN2Cc1ccc(C(F)(F)F)cc1` [Example 1, (R)-1-acetyl-N-(8-chloro-1-(4-(trifluoromethyl)benzyl)-1,2,3,4-tetrahydroquinolin-6-yl)piperidine-2-carboxamide], for which the “increase in the ear thickness (change in the ear thickness, next day of final induction)” value in assay [1] is given as “statistically significantly suppressed”. Besides, in assay [2], the “increase in the ear swelling rate” value is on record as “statistically significantly suppressed”.
Take `CC(=O)N1CCCC[C@@H]1C(=O)Nc1cc(Cl)c2c(c1)CCN2Cc1ccc(C(F)(F)F)cc1` [Example 4, (R)-1-acetyl-N-(7-chloro-1-(4-(trifluoromethyl)benzyl)indolin-5-yl)piperidine-2-carboxamide]: the “increase in the ear thickness (change in the ear thickness, next day of final induction)” value in assay [1] was “statistically significantly suppressed”. Moreover, in assay [2], the “increase in the ear swelling rate” value is on record as “statistically significantly suppressed”.
